Experimental data as given in EP4707277A1, “NOVEL HETEROCYCLIC AMINE DERIVATIVES AND PHARMACEUTICAL COMPOSITION COMPRISING SAME” (Daewoong Pharmaceutical Co., Ltd., priority 2023, dated 2024).
Like-named read-outs stand apart in the source and are kept apart here.

Tests used:
BTK = target: T1, BTK (Homo sapiens, UniProt Q06187); test: Inhibitory activity against BTK, ADP-Glo Kinase system (Promega); type: biochemical
T1 construct: purchased Signalchem B10-10H
Description: (§1) Inhibitory activities against BTK and ITK were measured for the compounds prepared in the above Examples as follows.
(§2) The inhibitory activities against BTK and ITK were evaluated using 'ADP-Glo™ Kinase system' (Promega Corporation). In the case of this evaluation method, activation was measured by quantifying the amount of ADP produced during the kinase reaction, which was utilized to measure the inhibitory activities against BTK and ITK.
(§3) Specifically, the inhibitory activities against BTK and ITK were measured using BTK kinase (Signalchem, B10-10H), ITK kinase (Signalchem, I13-11G-10), and ADP-Glo kinase assay kit (Promega, V9102). Recombinant purified human BTK and ITK were diluted with 1 x kinase reaction buffer (40 mM Tris-Cl, pH 7.5, 20 mM MgCl2, 0.1 mg/mL BSA, 2 mM MnCl2 and 50 uM DTT) and added to a 96 well plate (ITK: final concentration of 4 ng per reaction/BTK: final concentration of 10 ng per reaction). The compounds prepared in the previous Examples were treated so as to be finally a 1% DMSO aqueous solution, and a substrate cocktail containing ATP (1mM or Km ATP (BTK: 10 uM /ITK: 25uM)) and 0.2 ug/ul of Poly (Glu4,Tyr1) peptide (BTK and ITK final concentration) in the total 25 uL reactants was added to a 96-well plate to initiate enzymatic reaction. After incubation (30°C) for 1 hour, equivalent volume (25 uL per reaction) of ADP Glo was added, and incubated (30°C) for 40 minutes at room temperature. Then, a kinase detection reagent (45 uL per reaction) was added, and incubated (30°C) for 30 minutes at room temperature. The kinase activity was measured by chemiluminescence according to the instructions of ADP Glo kinase assay kit, and the inhibitory activity of the compounds according to the present disclosure was calculated. For the analysis of the results of each compound, Microsoft Excel was used, and IC50 values were calculated by GraphPad Prism software.

ITK = target: T2, ITK (Homo sapiens, UniProt Q08881); test: Inhibitory activity against ITK, ADP-Glo Kinase system (Promega); type: biochemical
T2 construct: purchased Signalchem I13-11G-10
T2 sequence (Q08881 1-620): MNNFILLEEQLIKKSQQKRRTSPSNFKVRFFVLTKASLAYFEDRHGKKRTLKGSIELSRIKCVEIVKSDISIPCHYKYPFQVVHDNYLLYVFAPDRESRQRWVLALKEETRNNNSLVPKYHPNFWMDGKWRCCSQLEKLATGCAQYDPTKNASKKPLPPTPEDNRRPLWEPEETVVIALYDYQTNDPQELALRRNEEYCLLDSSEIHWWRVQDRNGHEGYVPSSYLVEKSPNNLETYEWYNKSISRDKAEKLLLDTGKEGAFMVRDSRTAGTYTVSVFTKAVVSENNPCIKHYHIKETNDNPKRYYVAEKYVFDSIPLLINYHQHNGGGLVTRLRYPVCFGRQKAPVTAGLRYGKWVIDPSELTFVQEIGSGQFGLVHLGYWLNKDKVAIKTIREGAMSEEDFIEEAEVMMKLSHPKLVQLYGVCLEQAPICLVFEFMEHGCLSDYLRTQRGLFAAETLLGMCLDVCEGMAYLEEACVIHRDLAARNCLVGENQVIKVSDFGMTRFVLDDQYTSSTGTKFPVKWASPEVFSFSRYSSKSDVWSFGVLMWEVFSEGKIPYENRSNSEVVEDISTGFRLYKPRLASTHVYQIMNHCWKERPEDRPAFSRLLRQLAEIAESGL
Description: as §1, §2, §3

[1] = Km ATP (BTK: 10 uM), read-out: BTK IC50(nM) Km ATP
[2] = Km ATP (ITK: 25uM), read-out: ITK IC50(nM) Km ATP
[3] = 1mM ATP, read-out: BTK IC50(nM) 1mM ATP
[4] = 1mM ATP, read-out: ITK IC50(nM) 1mM ATP

T1 sequence (Q06187 whole entry): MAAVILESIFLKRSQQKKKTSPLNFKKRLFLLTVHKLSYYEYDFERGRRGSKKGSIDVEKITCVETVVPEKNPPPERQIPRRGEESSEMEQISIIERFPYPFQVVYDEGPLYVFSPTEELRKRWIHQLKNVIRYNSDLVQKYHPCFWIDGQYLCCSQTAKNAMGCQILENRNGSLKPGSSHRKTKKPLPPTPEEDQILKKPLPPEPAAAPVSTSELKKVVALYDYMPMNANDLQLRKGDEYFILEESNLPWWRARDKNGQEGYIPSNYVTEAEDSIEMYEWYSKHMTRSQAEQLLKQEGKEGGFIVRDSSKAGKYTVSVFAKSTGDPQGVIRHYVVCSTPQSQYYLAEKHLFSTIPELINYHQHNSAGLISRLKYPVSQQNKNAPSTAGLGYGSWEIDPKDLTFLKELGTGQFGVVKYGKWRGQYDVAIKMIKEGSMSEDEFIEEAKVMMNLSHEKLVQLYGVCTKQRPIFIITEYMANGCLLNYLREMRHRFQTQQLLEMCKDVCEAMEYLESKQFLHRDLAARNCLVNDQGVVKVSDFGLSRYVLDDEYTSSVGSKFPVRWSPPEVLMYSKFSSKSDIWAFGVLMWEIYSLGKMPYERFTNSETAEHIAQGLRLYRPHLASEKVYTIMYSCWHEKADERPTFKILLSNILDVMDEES

SMILES	IC50 (BTK; [1]) [nM]	IC50 (ITK; [2]) [nM]	IC50 (BTK; [3]) [nM]	IC50 (ITK; [4]) [nM]
C=CC(=O)Nc1ccc(F)c(-c2nc(Nc3ncc(C)s3)cc3c2ccn3CC2CC2)c1 [Example 61, N-(3-(1-(cyclopropylmethyl)-6-((5-methylthiazol-2-yl)amino)-1H-pyrrolo[3,2-c]pyridin-4-yl)-4-fluorophenyl)acrylamide]	≤ 20	≤ 20	–	–
C=CC(=O)N1CC[C@H](Oc2nc(Nc3ncc(C)s3)cc3c2ccn3CCC(C)C)C1 [Example 114, (S)-1-(3-((1-isopentyl-6-((5-methylthiazol-2-yl)amino)-1H-pyrrolo[3,2-c]pyridin-4-yl)oxy)pyrrolidin-1-yl)prop-2-en-1-one]	–	–	≤ 20	≤ 20
C=CC(=O)N1CC[C@H](Oc2nc(Nc3ncc(C)s3)cc3c2ccn3CC)C1 [Example 125, (S)-1-(3-((1-ethyl-6-((5-methylthiazol-2-yl)amino)-1H-pyrrolo[3,2-c]pyridin-4-yl)oxy)pyrrolidin-1-yl)prop-2-en-1-one]	≤ 20	≤ 20	–	–
C=CC(=O)N1C[C@@H](F)[C@H](Oc2nc(Nc3ncc(C)s3)cc3c2ccn3CC2CC2)C1 [Example 108, 1-((3R,4R)-3-((1-(cyclopropylmethyl)-6-((5-methylthiazol-2-yl)amino)-1H-pyrrolo[3,2-c]pyridin-4-yl)oxy)-4-fluoropyrrolidin-1-yl)prop-2-en-1-one]	–	–	≤ 20	≤ 20
C=CC(=O)N1C[C@H](F)[C@H](Oc2nc(Nc3ncc(C)s3)cc3c2ccn3CC)C1 [Example 152, 1-((3R,4S)-3-((1-ethyl-6-((5-methylthiazol-2-yl)amino)-1H-pyrrolo[3,2-c]pyridin-4-yl)oxy)-4-fluoropyrrolidin-1-yl)prop-2-en-1-one]	–	–	≤ 20	≤ 20
C=CC(=O)N1CC=C(c2nc(Nc3cc(C(F)(F)F)ccn3)cc3c2ccn3C(C)C)CC1 [Example 48, 1-(4-(1-isopropyl-6-((4-(trifluoromethyl)pyridin-2-yl)amino)-1H-pyrrolo[3,2-c]pyridin-4-yl)-3,6-dihydropyridin-1(2H)-yl)prop-2-en-1-one]	–	–	20 to 100	20 to 100
C=CC(=O)N1CCC[C@@H]1COc1nc(Nc2ncc(C)s2)cc2c1ccn2CC(F)F [Example 210, (R)-1-(2-(((1-(2,2-difluoroethyl)-6-((5-methylthiazol-2-yl)amino)-1H-pyrrolo[3,2-c]pyridin-4-yl)oxy)methyl)pyrrolidin-1-yl)prop-2-en-1-one]	–	–	≤ 20	≤ 20
C=CC(=O)N1CC=C(c2nc(Nc3ncc(C)s3)cc3c2ccn3C(C)C)CC1 [Example 2, 1-(4-(1-isopropyl-6-((5-methylthiazol-2-yl)amino)-1H-pyrrolo[3,2-c]pyridin-4-yl)-3,6-dihydropyridin-1(2H)-yl)prop-2-en-1-one]	≤ 20	≤ 20	20 to 100	20 to 100
C=CC(=O)N1C2C=C(c3nc(Nc4ncc(C)s4)cc4c3ccn4C)CC1CC2 (centres unmarked) [Example 28, 1-(3-(1-methyl-6-((5-methylthiazol-2-yl)amino)-1H-pyrrolo[3,2-c]pyridin-4-yl)-8-azabicyclo[3.2.1]oct-2-en-8-yl)prop-2-en-1-one]	≤ 20	≤ 20	≤ 20	≤ 20
C=CC(=O)N1C[C@@H](Oc2nc(Nc3ncc(C)s3)cc3c2ccn3CCC)C[C@@H]1C [Example 187, 1-((2S,4S)-2-methyl-4-((6-((5-methylthiazol-2-yl)amino)-1-propyl-1H-pyrrolo[3,2-c]pyridin-4-yl)oxy)pyrrolidin-1-yl)prop-2-en-1-one]	–	–	≤ 20	≤ 20
C=CC(=O)N1CCC[C@H]1COc1nc(Nc2ncc(C)s2)cc2c1ccn2CC1CCCC1 [Example 220, (S)-1-(2-(((1-(cyclopentylmethyl)-6-((5-methylthiazol-2-yl)amino)-1H-pyrrolo[3,2-c]pyridin-4-yl)oxy)methyl)pyrrolidin-1-yl)prop-2-en-1-one]	–	–	≤ 20	20 to 100
